Type in all cases: biochemical
For one assay, the target named is T1, MMP1 (Homo sapiens, UniProt P03956).
T1 construct: purchased AnaSpec, San Jose, USA
T1 sequence (P03956 100-469): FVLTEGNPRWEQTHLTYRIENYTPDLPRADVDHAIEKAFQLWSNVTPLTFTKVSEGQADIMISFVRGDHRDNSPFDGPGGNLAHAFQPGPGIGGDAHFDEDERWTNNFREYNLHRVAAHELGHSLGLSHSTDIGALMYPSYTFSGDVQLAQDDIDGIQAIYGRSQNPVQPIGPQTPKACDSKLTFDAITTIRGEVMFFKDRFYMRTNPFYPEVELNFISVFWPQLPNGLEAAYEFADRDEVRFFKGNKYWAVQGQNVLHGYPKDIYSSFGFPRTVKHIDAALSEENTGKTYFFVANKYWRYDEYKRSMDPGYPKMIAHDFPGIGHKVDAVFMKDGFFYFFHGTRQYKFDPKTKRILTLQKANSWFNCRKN
As to the kind of experiment: In vitro fluorometric MMP inhibition assay (SensoLyte 520 MMP-1). The settings on record: mean ± SD of three independent experiments in duplicate. The method, then: (§1) The inhibitory potency and selective binding of MMP-ligands was investigated by examining their capacity to block MMP1, MMP2 and MMP9 activity, using in vitro fluorometric assays (SensoLyte^TM 520 MMP-1, SensoLyte^TM 520 MMP-2, SensoLyte^TM 520 MMP-9; AnaSpec, San Jose, USA). Assay buffer was warmed to 37°C and used to dilute the reference inhibitor N-isobutyl-N-(4-methoxyphenylsulfonyl)glycyl hydoxamic acid (NNGH 1:100), calibration standard (1:50), substrate and enzyme (1:60). Components were loaded into a 96-well plate. MMP ligands 10a-d were also aliquoted to the respective 96-well plate at varying concentrations (10pM, 100pM, 1nM, 10nM, 100nM, 1μM, 10 μM and 100 μM), followed by incubation at 37°C for 30 minutes. Reactions were initiated by addition of the substrate to the respective wells, after which fluorescence generated was measured using a microplate reader (Synergy HT Multi-detection Microplate Reader, BioTek, […]) continuously for 30 minutes at 60 second intervals. Data analysis was conducted using Sigma Plot and Microsoft Excel.

The target in a further assay is T2, MMP2 (Homo sapiens, UniProt P08253).
T2 construct: purchased AnaSpec, San Jose, USA
T2 sequence (P08253 110-660): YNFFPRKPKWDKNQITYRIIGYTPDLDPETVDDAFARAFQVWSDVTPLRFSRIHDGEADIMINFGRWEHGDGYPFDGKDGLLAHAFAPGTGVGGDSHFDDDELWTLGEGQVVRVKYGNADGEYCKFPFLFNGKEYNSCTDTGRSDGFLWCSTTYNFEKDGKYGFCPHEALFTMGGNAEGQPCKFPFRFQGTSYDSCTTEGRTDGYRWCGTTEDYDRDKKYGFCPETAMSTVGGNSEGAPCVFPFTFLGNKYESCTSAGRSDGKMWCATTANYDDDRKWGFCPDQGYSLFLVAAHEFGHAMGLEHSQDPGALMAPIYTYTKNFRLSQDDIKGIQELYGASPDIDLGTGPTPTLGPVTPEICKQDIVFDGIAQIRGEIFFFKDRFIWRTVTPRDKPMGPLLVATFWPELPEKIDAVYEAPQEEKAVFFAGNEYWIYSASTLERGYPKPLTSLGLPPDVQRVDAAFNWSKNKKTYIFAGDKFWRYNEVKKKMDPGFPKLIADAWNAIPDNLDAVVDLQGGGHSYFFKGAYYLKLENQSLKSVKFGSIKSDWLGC
Put plainly: In vitro fluorometric MMP inhibition assay (SensoLyte 520 MMP-2). The settings on record: for IC50: mean ± SD of three independent experiments in duplicate; for Selectivity MMP1/MMP2: ratio of IC50 values, MMP1 IC50 divided by MMP2 IC50. The method, then: as §1

The next assay concerns the target T3, MMP9 (Homo sapiens, UniProt P14780).
T3 construct: purchased AnaSpec, San Jose, USA
As to the kind of experiment: In vitro fluorometric MMP inhibition assay (SensoLyte 520 MMP-9). Particulars: for IC50: mean ± SD of three independent experiments in duplicate; for Selectivity MMP1/MMP9: ratio of IC50 values, MMP1 IC50 divided by MMP9 IC50. As for the experimental part:
as §1

Broadly, the IC50 is the midpoint of a concentration-inhibition curve.

T3 sequence (P14780 94-707, species assumed): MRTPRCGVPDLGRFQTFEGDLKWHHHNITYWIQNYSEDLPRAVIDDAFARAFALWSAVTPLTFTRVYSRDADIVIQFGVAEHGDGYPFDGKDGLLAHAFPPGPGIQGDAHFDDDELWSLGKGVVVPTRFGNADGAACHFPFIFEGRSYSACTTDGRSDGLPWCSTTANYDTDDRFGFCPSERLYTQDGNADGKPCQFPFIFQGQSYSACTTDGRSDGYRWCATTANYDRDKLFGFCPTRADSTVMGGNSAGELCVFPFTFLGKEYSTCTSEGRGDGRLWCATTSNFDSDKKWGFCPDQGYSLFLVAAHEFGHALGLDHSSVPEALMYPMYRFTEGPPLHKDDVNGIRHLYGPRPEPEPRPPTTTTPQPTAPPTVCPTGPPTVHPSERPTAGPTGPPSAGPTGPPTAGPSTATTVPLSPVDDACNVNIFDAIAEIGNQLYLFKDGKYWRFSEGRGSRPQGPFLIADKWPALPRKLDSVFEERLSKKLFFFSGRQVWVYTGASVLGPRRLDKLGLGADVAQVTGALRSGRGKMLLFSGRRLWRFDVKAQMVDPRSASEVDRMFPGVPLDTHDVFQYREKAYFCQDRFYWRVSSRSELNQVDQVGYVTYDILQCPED

Regarding `O=C(O)CN(CC(=O)NO)S(=O)(=O)c1ccc(Oc2ccc(I)cc2)cc1` [Compound 10c, ([4-(4-Iodo-phenoxy)-benzenesulphonyl]-hydroxycarbamoylmethyl-amino) acetic acid], the IC50 on MMP1 was 910 ± 560 nM. Also, on MMP2, the IC50 worked out at 0.87 ± 0.4 nM and the “Selectivity MMP1/MMP2” value is 1.05 x 10^3. For the same compound, on MMP9, the IC50 worked out at 1.95 ± 1.1 nM and the “Selectivity MMP1/MMP9” value turned out to be 467.
The like results for `O=C(O)CN(CC(=O)NO)S(=O)(=O)c1ccc(Oc2ccc(Br)cc2)cc1` [Compound 10d, ([4-(4-Bromo-phenoxy)-benzenesulphonyl]-hydroxycarbamoylmethyl-amino) acetic acid] were, in that order, 1320 ± 790 nM, 7.64 ± 1.43 nM, 173, 1.61 ± 1.41 nM and 820.
`O=C(O)CN(CC(=O)NO)S(=O)(=O)c1ccccc1` [Compound 4a, 2-(N-(2(hydroxyamino)-2-oxoethyl)phenylsulfonamido) acetic acid]: the IC50 on MMP1 turned out to be 51 ± 0.1 nM; on MMP2, 39 ± 0.16 nM; on MMP9, 14 ± 1.05 nM. The “Selectivity MMP1/MMP2” value at MMP2 worked out at 1.31. Moreover, the “Selectivity MMP1/MMP9” value on MMP9 amounted to 3.64.
With `O=C(O)CN(CC(=O)NO)S(=O)(=O)c1ccc(Oc2ccc(F)cc2)cc1` [Compound 10b], the “Selectivity MMP1/MMP2” value at MMP2 is 3.60 x 10^4. In addition, the “Selectivity MMP1/MMP9” value on MMP9 is recorded as 1.74 x 10^4.
Turning to `O=C(O)CN(CC(=O)NO)S(=O)(=O)c1ccc(I)cc1` [Compound 4c, 2-(4-Iodo-N-(2-hydroxyamino)-2-oxoethyl) phenylsufonamido acetic acid], the IC50 on MMP1 amounted to 59 ± 0.17 nM. Also, at MMP2, the IC50 is 27 ± 1 nM and the “Selectivity MMP1/MMP2” value turned out to be 2.19. Moreover, on MMP9, the IC50 was found to be 11 ± 1.14 nM and the “Selectivity MMP1/MMP9” value was determined as 5.36.
For the compound `O=C(O)CN(CC(=O)NO)S(=O)(=O)c1ccc(Oc2ccccc2)cc1` [Compound 10a, ([4-Phenoxy-benzenesulphonyl]-hydroxycarbamoylmethyl-amino) acetic acid], the “Selectivity MMP1/MMP2” value on MMP2 was 884. Also, the “Selectivity MMP1/MMP9” value on MMP9 was determined as 387.
Consider `O=C(O)CN(CC(=O)NO)S(=O)(=O)c1ccc(Cl)cc1` [Compound 4e, 2-(4-chloro-N-(2-hydroxyamino)-2-oxoethyl)phenylsufonamido acetic acid], for which the IC50 on MMP1 is 61 ± 0.11 nM. On MMP2, the IC50 came to 41 ± 0.19 nM and the “Selectivity MMP1/MMP2” value came out at 1.49. For the same compound, at MMP9, the IC50 is 18 ± 0.16 nM and the “Selectivity MMP1/MMP9” value worked out at 3.39.
The corresponding values for `O=C(O)CN(CC(=O)NO)S(=O)(=O)c1ccc(Br)cc1` [Compound 4d, 2-(4-bromo-N-(2-hydroxyamino)-2-oxoethyl) phenylsufonamido acetic acid] are 63 ± 0.13 nM, 19 ± 0.19 nM, 3.32, 23 ± 0.21 nM and 2.74.
The like results for `O=C(O)CN(CC(=O)NO)S(=O)(=O)c1ccc(F)cc1` [Compound 4b, 2-(4-fluoro-N-(2-hydroxyamino)-2oxoethyl)phenylsufonamido acetic acid] were, in that order, 75 ± 0.15 nM, 12 ± 0.17 nM, 6.25, 21 ± 0.19 nM and 3.57.

The record behind these values is article PMC5708805, “Novel molecular imaging ligands targeting matrix metalloproteinases 2 and 9 for imaging of unstable atherosclerotic plaques” (PLoS ONE, 2017).
